In patent US8247431B2, “Heterocyclic hydrazide compound and pesticidal use of the same” (Sumitomo Chemical Company, Limited, priority 2007, dated 2012):

What was measured:
Format in all cases: in vivo
[1] = tested on: diamondback moths (Plutella xylostella); test: Test Example 1: spray on cabbage, third-instar larvae of diamondback moths; details: Plutella xylostella, 120 h; 500 ppm active ingredient, 20 ml/cup spray on cabbage, 10 third-instar larvae, counted after 5 days; read-out: controlling value
Protocol: Then, it will be shown by Test Examples that the present compound is effective in controlling harmful arthropods. In the Test Example, controlling values were calculated by the following equation: Controlling value(%)={1−(Cb×Tai)/(Cai×Tb)}×100 wherein Cb: the number of worms in a non-treated section before treatment Cai: the number of worms in a non-treated section on observation Tb: the number of worms in a treated-section before treatment Tai: the number of worms in a treated-section on observation. Preparations of the test compounds obtained in Formulation Example 5 were diluted with water so that the active ingredient concentration became 500 ppm, to prepare test spray solutions. At the same time, cabbage was planted in a polyethylene cup, and grown until the third true leaf or the fourth true leaf was developed. The test spray solution as described above was sprayed in an amount of 20 ml/cup on the cabbage. After the spray solution on the cabbage was dried, 10 third-instar larvae of diamondback moths (Plutella xylostella) were put on the cabbage. After 5 days, the number of diamondback moths was counted, and the controlling value was calculated by the above equation. Furthermore, preparations of the test compound (7) and a comparative compound of the formula [drawing 523] obtained in a formulation according to Formulation Example 5 were diluted with water so that the active ingredient concentration became 0.2 ppm, to prepare test spray solution. At the same time, cabbage was planted in a polyethylene cup, and grown until the third true leaf or the fourth true leaf was developed. The test spray solution as described above was sprayed in an amount of 20 ml/cup on the cabbage. After the spray solution on the cabbage was dried, 10 third-instar larvae of diamondback moths (Plutella xylostella) were put on the cabbage. After 5 days, the number of diamondback moths was counted, and the controlling value was calculated by the above equation.

[2] = tested on: cotton aphids (Aphis gossypii); test: Test Example 2: spray on cucumber infested with cotton aphids; details: topical, 144 h, 500 ppm active ingredient, 20 ml/cup spray on cucumber, about 30 aphids, counted six days after spraying, read-out: controlling value
Protocol: Then, it will be shown by Test Examples that the present compound is effective in controlling harmful arthropods. In the Test Example, controlling values were calculated by the following equation: Controlling value(%)={1−(Cb×Tai)/(Cai×Tb)}×100 wherein Cb: the number of worms in a non-treated section before treatment Cai: the number of worms in a non-treated section on observation Tb: the number of worms in a treated-section before treatment Tai: the number of worms in a treated-section on observation. Preparations of the test compounds obtained in Formulation Example 5 were diluted with water so that the active ingredient concentration became 500 ppm to prepare test spray solutions. At the same time, cucumber was planted in a polyethylene cup, and was grown until the first true leaf was developed. About 30 cotton aphids were put on the cucumber. One day after, the test spray solution as described above was sprayed in an amount of 20 ml/cup on the cucumber. Six days after spraying, the number of cotton aphids (Aphis gossypii) was counted, and a controlling value was calculated by the above equation.

[3] = tested on: Spodoptera litura; test: Test Example 3: spray on cabbage, fourth-instar larvae of Spodoptera litura; details: 120 h, 500 ppm active ingredient, 20 ml/cup spray on cabbage, 10 fourth-instar larvae, counted after 5 days, read-out: controlling value
Protocol: Then, it will be shown by Test Examples that the present compound is effective in controlling harmful arthropods. In the Test Example, controlling values were calculated by the following equation: Controlling value(%)={1−(Cb×Tai)/(Cai×Tb)}×100 wherein Cb: the number of worms in a non-treated section before treatment Cai: the number of worms in a non-treated section on observation Tb: the number of worms in a treated-section before treatment Tai: the number of worms in a treated-section on observation. Preparations of the test compounds obtained in Formulation Example 5 were diluted with water so that the active ingredient concentration became 500 ppm to prepare test spray solutions. At the same time, cabbage was planted in a polyethylene cup, and grown until the third true leaf or the fourth true leaf was developed. The test spray solution as described above was sprayed in an amount of 20 ml/cup on the cabbage. After the spray solution sprayed on the cabbage was dried, 10 fourth-instar larvae of Spodoptera litura were put on the cabbage. After 5 days, the number of Spodoptera litura surviving on the cabbage leaves was counted, and a controlling value was calculated by the above equation.

[4] = tested on: Adoxophyes orana fasciata; test: Test Example 4: spray on apple seedling, first-instar larvae of Adoxophyes orana fasciata; details: 168 h, 500 ppm active ingredient, 20 ml spray on apple seedling, about 30 first-instar larvae, counted seven days after spraying, read-out: controlling value
Protocol: Then, it will be shown by Test Examples that the present compound is effective in controlling harmful arthropods. In the Test Example, controlling values were calculated by the following equation: Controlling value(%)={1−(Cb×Tai)/(Cai×Tb)}×100 wherein Cb: the number of worms in a non-treated section before treatment Cai: the number of worms in a non-treated section on observation Tb: the number of worms in a treated-section before treatment Tai: the number of worms in a treated-section on observation. Preparations of the test compounds obtained in Formulation Example 5 were diluted with water so that the active ingredient concentration became 500 ppm to prepare test spray solutions. At the same time, 20 ml of the test spray solution as described above was sprayed to an apple seedling (28 day-old seeding, tree height: about 15 cm) planted in a plastic cup. The apple seedling was air-dried to such an extent that the spray solution sprayed on the apple seedling was dried. About 30 first-instar larvae of Adoxophyes orana fasciata were released. Seven days after spraying, the number of worms surviving on the apple seedling was counted, and a controlling value was calculated by the above equation.

Row | SMILES | pest or weed control at 500 ppm [1] [%] | pest or weed control at 500 ppm [2] [%] | pest or weed control at 500 ppm [3] [%] | pest or weed control at 500 ppm [4] [%]
1 | COC(=O)NNC(=O)c1cc(Cl)nc(Br)c1NC(=O)c1cc(Br)nn1-c1ncccc1Cl [Compound 4, N′-(2-bromo-3-{[5-bromo-2-(3-chloro-pyridin-2-yl)-2H-pyrazole-3-carbonyl]-amino}-6-chloro-pyridine-4-carbonyl)-hydrazinecarboxylic acid methyl ester] | ≥ 90 | ≥ 90 | ≥ 80 | ≥ 90
2 | COC(=O)N(C)NC(=O)c1nc(Cl)cc(C)c1NC(=O)c1cc(Br)nn1-c1ncccc1Cl [Compound 8, N′-(3-{[5-bromo-2-(3-chloro-pyridin-2-yl)-2H-pyrazole-3-carbonyl]-amino}-6-chloro-4-methyl-pyridine-2-carbonyl)-N-methyl-hydrazinecarboxylic acid methyl ester] | ≥ 90 | ≥ 90 | ≥ 80 | ≥ 90
